Measured values reported in paper PMC3254626, “Targeting RNA Polymerase Primary σ^70 as a Therapeutic Strategy against Methicillin-Resistant Staphylococcus aureus by Antisense Peptide Nucleic Acid” (PLoS ONE, 2012).
≈ marks a conversion by molar mass, not a printed value. Like-named read-outs stand apart in the source and are kept apart here. Square brackets hold non-standard residues; d marks the D form. Peptide text beside a SMILES is read from it. Ahx = NCCCCCC(=O)O; βAla = NCCC(=O)O

Tests used:
Assay in all cases: microbe, parasite or virus in culture
Type in all cases: cell-based, Staphylococcus aureus
S. aureus ATCC29213 = conditions: read-out: MIC for S. aureus strains, ATCC 29213
Description: (§1) Secondary structure of rpoD mRNA predicted by RNA structure 4.6 software. […] Building from evidence that 12-base antisense PNAs was an effective length, five plausible target sites located in the region that satisfied both above aspects were chosen for synthesis of complementary antisense PNAs at 12-base length. Effective target site in rpoD was verified by modified MIC test of PPNA in four S. aureus strains with different characteristics in resistance phenotype. All PNAs used are covalently conjugated with the same cell penetrating peptide (KFF)3K at the carbon terminus (corresponding to the 3′ end of a conventional oligonucleotide).
(§2) Optimal anti-rpoD PPNA was selected by minimal inhibitory concentration (MIC) results determined for clinical isolates of pathogenic S. aureus species.
(§3) MICs were determined twice by the microdilution assay in sterilized 96-well polypropylene microtiter plates according to the broth microdilution guideline based on Good et al.. Briefly, single colony overnight culture of subjected bacterial cells was diluted to give a final inoculation at 10^5 CFU/mL in duplicate 100 µL Mueller Hinton (MH) broth in a low-binding 96-well microtiter plate. Stocks of PPNA, Scr PPNA and CPPs were added immediately to the indicated final concentrations. Plates were incubated at 35°C in aerobic environment for 24 h of overnight culture. MICs were the lowest PNA concentrations that prevented bacterial growth by visual inspection after overnight (24 h) growth. To verify the specific antisense effect, peptide was also conjugated to a scrambled PNA with a base sequence that was not complementary to the selected target site of rpoD mRNA. To control for nonspecific toxicity, the MIC of the control CPPs (KFF)3K and (RXR)4XB in all cases, was above the limit of measurement, which was 60 or 30 µM.

[1] = system: MRSA XIJING (MDR clinical isolate); conditions: broth microdilution, MH broth, inoculum 10^5 CFU/mL, 35°C, 24 h, visual inspection, determined twice, read-out: MIC for S. aureus strains, XIJING
Description: as §1, §2, §3

MRSA WHO-2 = conditions: read-out: MIC for S. aureus strains, WHO-2
Description: as §1, §2, §3

MRSA/VISA Mu50 = conditions: broth microdilution, MH broth, inoculum 10^5 CFU/mL, 35°C, 24 h, visual inspection, determined twice, read-out: MIC for S. aureus strains, Mu 50
Description: as §1, §2, §3

[2] = Staphylococcus aureus, ATCC29213, broth microdilution, MH broth, inoculum 10^5 CFU/mL, 35°C, 24 h, visual inspection, determined twice, antibiotic sensitive QC strain
[3] = Staphylococcus aureus, broth microdilution, MH broth, inoculum 10^5 CFU/mL, 35°C, 24 h, visual inspection, determined twice, MRSA

MIC (S. aureus ATCC29213; ATCC29213, 24 h)	MIC [1]	MIC (MRSA WHO-2; WHO-2, 24 h)	MIC (MRSA/VISA Mu50)	MIC (S. aureus ATCC29213; broth microdilution, MH broth, inoculum 10^5 CFU/mL, 35°C, 24 h, visual inspection, determined twice, antibiotic sensitive QC strain)	MIC (MRSA WHO-2; broth microdilution, MH broth, inoculum 10^5 CFU/mL, 35°C, 24 h, visual inspection, determined twice, MRSA)	Compound	MIC (S. aureus ATCC29213; [2])	MIC ([1]; Staphylococcus aureus)	MIC (MRSA WHO-2; [3])	MIC (MRSA/VISA Mu50; Staphylococcus aureus)
> 30 µM	> 30 µM	> 30 µM	> 30 µM	–	–	N=C(N)NCCC[C@H](NC(=O)CCCCCNC(=O)[C@H](CCCNC(=N)N)NC(=O)[C@H](CCCNC(=N)N)NC(=O)CCCCCNC(=O)[C@H](CCCNC(=N)N)NC(=O)[C@H](CCCNC(=N)N)NC(=O)CCCCCNC(=O)[C@H](CCCNC(=N)N)NC(=O)[C@H](CCCNC(=N)N)NC(=O)CCCCCNC(=O)[C@@H](N)CCCNC(=N)N)C(=O)NCCCCCC(=O)NCCC(=O)O [(RXR)4XB] (H-R[Ahx]RR[Ahx]RR[Ahx]RR[Ahx]R[Ahx][βAla]-OH)	–	–	–	–
–	>1024 µM	–	1024 µM (≈ 560 µg/mL)	8 µM (≈ 4.37 µg/mL)	256 µM (≈ 140 µg/mL)	CC(C)(O/N=C(\C(=O)N[C@@H]1C(=O)N2C(C(=O)[O-])=C(C[n+]3ccccc3)CS[C@H]12)c1csc(N)n1)C(=O)O [ceftazidine]	–	–	–	–
>60 µM	–	>60 µM	–	–	–	NCCCC[C@H](NC(=O)[C@H](Cc1ccccc1)NC(=O)[C@H](Cc1ccccc1)NC(=O)[C@H](CCCCN)NC(=O)[C@H](Cc1ccccc1)NC(=O)[C@H](Cc1ccccc1)NC(=O)[C@H](CCCCN)NC(=O)[C@H](Cc1ccccc1)NC(=O)[C@H](Cc1ccccc1)NC(=O)[C@@H](N)CCCCN)C(=O)O [(KFF)3K] (H-KFFKFFKFFK-OH)	–	–	–	–
–	–	–	–	–	–	Cc1onc(-c2ccccc2)c1C(=O)N[C@@H]1C(=O)N2[C@@H]1SC(C)(C)[C@@H]2C(=O)O [oxacillin]	0.5 µM (≈ 0.201 µg/mL)	> 1020 µM	512 µM (≈ 206 µg/mL)	> 1020 µM
–	–	–	–	–	–	CC1(C)S[C@@H]2[C@H](NC(=O)[C@H](N)c3ccccc3)C(=O)N2[C@H]1C(=O)O [ampicillin]	1 µM (≈ 0.349 µg/mL)	> 1020 µM	256 µM (≈ 89.4 µg/mL)	> 1020 µM
